The values below come from patent publication US12637432B2, “Inhibitors of ACK1/TNK2 tyrosine kinase” (H. LEE MOFFITT CANCER CENTER AND RESEARCH INSTITUTE, INC., priority 2020, dated 2026).

Data set [1] addresses T1, ACK1 (Homo sapiens, UniProt Q07912).
T1 construct: purchased Reaction Biology
As to the kind of experiment: ACK1 ELISA % inhibition at 100 nM. In kind it is biochemical. In general terms: In an ELISA, binding on a coated surface is turned into a signal by an enzyme label.

For data set [2], the target named is T1, ACK1. The data set is described as follows: Reaction Biology 33P Hotspot assay. The format is biochemical.
For a further data set, the system named is UKE1. The data set is described as follows: Cell viability (UKE1). The format is cell-based.
In another data set the test system is MDA-MB-231. As to the kind of experiment: Cell viability (MDA-MB-231). In kind it is cell-based. As to conditions: Homo sapiens.
Data set [3] addresses T1, ACK1. The data set is described as follows: ACK1 IC50 (Table 1, assay not specified). The format is biochemical.
For the next data set, the system named is AKT Tyr176. The conditions noted are these: pancreatic cancer cells; cited from earlier work.
A further data set concerns AR Tyr267. The conditions noted are these: cited from earlier work.
The test system of data set [4] is castration and radioresistant prostate xenograft tumor. As to conditions: in vivo; cited from earlier work.
For data set [5] the following is noted: attributed to oxidation of dithiolane ring and NMe2; cited from earlier work.

T1 sequence (Q07912 whole entry): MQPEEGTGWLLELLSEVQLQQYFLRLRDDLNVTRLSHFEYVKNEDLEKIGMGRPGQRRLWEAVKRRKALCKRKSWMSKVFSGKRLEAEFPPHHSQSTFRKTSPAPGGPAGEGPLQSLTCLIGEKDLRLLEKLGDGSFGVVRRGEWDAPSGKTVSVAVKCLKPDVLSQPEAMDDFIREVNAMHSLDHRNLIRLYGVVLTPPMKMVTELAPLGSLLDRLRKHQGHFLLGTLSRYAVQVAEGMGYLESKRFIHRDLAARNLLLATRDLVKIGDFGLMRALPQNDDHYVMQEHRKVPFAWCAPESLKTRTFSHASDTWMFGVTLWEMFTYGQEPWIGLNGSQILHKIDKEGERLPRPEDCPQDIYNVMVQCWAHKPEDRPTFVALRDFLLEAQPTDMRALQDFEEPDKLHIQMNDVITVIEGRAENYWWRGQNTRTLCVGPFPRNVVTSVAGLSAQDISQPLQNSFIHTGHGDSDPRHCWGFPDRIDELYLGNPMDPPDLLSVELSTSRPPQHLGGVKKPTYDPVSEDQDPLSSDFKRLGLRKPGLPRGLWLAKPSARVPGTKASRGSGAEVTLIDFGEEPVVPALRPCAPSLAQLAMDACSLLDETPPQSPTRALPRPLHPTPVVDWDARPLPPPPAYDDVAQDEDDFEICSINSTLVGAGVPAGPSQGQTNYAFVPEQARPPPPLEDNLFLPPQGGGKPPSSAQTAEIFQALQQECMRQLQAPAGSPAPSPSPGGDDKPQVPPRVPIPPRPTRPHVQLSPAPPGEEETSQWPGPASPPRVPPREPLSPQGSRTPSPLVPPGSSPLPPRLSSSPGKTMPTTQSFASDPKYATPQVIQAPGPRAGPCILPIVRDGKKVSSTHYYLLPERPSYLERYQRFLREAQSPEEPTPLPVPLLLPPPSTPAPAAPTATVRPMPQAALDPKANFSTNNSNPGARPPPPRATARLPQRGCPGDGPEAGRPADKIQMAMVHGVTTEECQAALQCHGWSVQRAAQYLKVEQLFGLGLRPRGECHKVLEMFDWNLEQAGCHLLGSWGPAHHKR

Broadly, the inhibition is the percentage by which the read-out fell short of the control. A high value points to a response far below the control. On to `COc1cc(N2CCN(C)CC2)ccc1Nc1ncc(Cl)c(NCc2ccc(C(F)(F)F)cc2)n1` [5-chloro-N^2-(2-methoxy-4-(4-methylpiperazin-1-yl)phenyl)-N^4-(4-(trifluoromethyl)benzyl)pyrimidine-2,4-diamine], for which, at ACK1 [1], the inhibition at 0.1 µM was 31.1%.

The compound `COc1cc(N2CCN(C)CC2)ccc1Nc1ncc(Cl)c(N(CCc2ccccc2)CC2CCCO2)n1` (stereo not shown) [5-chloro-N^2-(2-methoxy-4-(4-methylpiperazin-1-yl)phenyl)-N^4-phenethyl-N^4-((tetrahydrofuran-2-yl)methyl)pyrimidine-2,4-diamine] came in with an inhibition at 0.1 µM at ACK1 [1] of 38.5%.

In general, IC50 refers to the concentration at which inhibition is half-maximal. High values mean a need for much substance, low ones inhibition by little substance. The term EC50 denotes the concentration needed to bring the measured effect to its halfway point. On to `Cn1cc(-c2ccc(Nc3ncc(Cl)c(NCC4CCOCC4)n3)cc2)cn1` [5-chloro-N^2-(4-(1-methyl-1H-pyrazol-4-yl)phenyl)-N^4-((tetrahydro-2H-pyran-4-yl)methyl)pyrimidine-2,4-diamine], for which the half-inhibitory concentration (IC50) against ACK1 [2] was determined as 29.1 nM. Besides, the half-maximal effective concentration (EC50) amounted to 6700 nM in the data set on UKE1 and 7720 nM with MDA-MB-231.

At ACK1 [1], `CN1CCN(c2ccc(Nc3ncc(Cl)c(N(CCc4ccccc4)CC4CCCO4)n3)cc2)CC1` (stereo not shown) [5-chloro-N^2-(4-(4-methylpiperazin-1-yl)phenyl)-N^4-phenethyl-N^4-((tetrahydrofuran-2-yl)methyl)pyrimidine-2,4-diamine] had an inhibition at 0.1 µM of 32%. For the compound `OCCn1cc(-c2ccc(Nc3ncc(Cl)c(NC[C@H]4CCCO4)n3)cc2F)cn1` [(R)-2-(4-(4-((5-chloro-4-(((tetrahydrofuran-2-yl)methyl)amino)pyrimidin-2-yl)amino)-2-fluorophenyl)-1H-pyrazol-1-yl)ethan-1-ol], half-maximal inhibition against ACK1 [3] (IC50) required 46.1 nM. Still for that read-out and setting: for `COCCn1cc(-c2ccc(Nc3ncc(Cl)c(NC[C@H]4CCCO4)n3)cc2F)cn1` [(R)-5-chloro-N^2-(3-fluoro-4-(1-(2-methoxyethyl)-1H-pyrazol-4-yl)phenyl)-N^4-((tetrahydrofuran-2-yl)methyl)pyrimidine-2,4-diamine] the value was 137 nM; for `Fc1cc(Nc2ncc(Cl)c(NC[C@H]3CCCO3)n2)ccc1-c1cnn(C2CCOCC2)c1` [(R)-5-chloro-N^2-(3-fluoro-4-(1-(tetrahydro-2H-pyran-4-yl)-1H-pyrazol-4-yl)phenyl)-N^4-((tetrahydrofuran-2-yl)methyl)pyrimidine-2,4-diamine], 78.7 nM; for `Fc1cc(Nc2ncc(Cl)c(NC[C@H]3CCCO3)n2)ccc1OCCN1CCCC1` [(R)-5-chloro-N^2-(3-fluoro-4-(2-(pyrrolidin-1-yl)ethoxy)phenyl)-N^4-((tetrahydrofuran-2-yl)methyl)pyrimidine-2,4-diamine], 60.1 nM. Compound `CC[C@@H](Nc1nc(Nc2ccc(C3CCN(C)CC3)c(OC(C)C)c2)ncc1Cl)C1CCOCC1` [(R)-5-chloro-N^2-(3-isopropoxy-4-(1-methylpiperidin-4-yl)phenyl)-N^4-(1-(tetrahydro-2H-pyran-4-yl)propyl)pyrimidine-2,4-diamine] gave an IC50 on ACK1 [2] of 352 nM. In other words, the sub-micromolar range. On to `CC(C)Oc1cc(Nc2ncc(Cl)c(N[C@H](C)C3CCOCC3)n2)ccc1N1CCN(C)CC1` [(R)-5-chloro-N^2-(3-isopropoxy-4-(4-methylpiperazin-1-yl)phenyl)-N^4-(1-(tetrahydro-2H-pyran-4-yl)ethyl)pyrimidine-2,4-diamine], for which the concentration for half-maximal inhibition (IC50) against ACK1 [2] was 37 nM.

In turn, `COc1cc(Nc2ncc(Cl)c(NC[C@H]3CCCO3)n2)ccc1-c1cnn(C)c1` [(R)-5-chloro-N^2-(3-methoxy-4-(1-methyl-1H-pyrazol-4-yl)phenyl)-N^4-((tetrahydrofuran-2-yl)methyl)pyrimidine-2,4-diamine] had an IC50 at ACK1 [2] of 40.4 nM. For `Cn1cc(-c2ccc(Nc3ncc(Cl)c(NC[C@H]4CCCO4)n3)cc2)cn1` [(R)-5-chloro-N^2-(4-(1-methyl-1H-pyrazol-4-yl)phenyl)-N^4-((tetrahydrofuran-2-yl)methyl)pyrimidine-2,4-diamine], it took 128 nM to reach half-maximal inhibition on ACK1 [2] (IC50). This IC50 lies about 3.2-fold higher than the previous one. Consider `Clc1cnc(Nc2ccc(OCCN3CCCC3)cc2)nc1NC[C@H]1CCCO1` [(R)-5-chloro-N^2-(4-(2-(pyrrolidin-1-yl)ethoxy)phenyl)-N^4-((tetrahydrofuran-2-yl)methyl)pyrimidine-2,4-diamine], for which, on ACK1 [3], the concentration for half-maximal inhibition (IC50) was 56.5 nM. Turning to `Clc1cnc(Nc2ccc(OCC3CCOCC3)cc2)nc1NC[C@H]1CCCO1` [(R)-5-chloro-N^2-(4-((tetrahydro-2H-pyran-4-yl)methoxy)phenyl)-N^4-((tetrahydrofuran-2-yl)methyl)pyrimidine-2,4-diamine], half-maximal inhibition against ACK1 [2] (IC50) required 69 nM. `COc1cc(N2CCN(C)CC2)ccc1Nc1ncc(Cl)c(N[C@H](C)c2ccc(Cl)cc2)n1` [(R)-5-chloro-N^4-(1-(4-chlorophenyl)ethyl)-N^2-(2-methoxy-4-(4-methylpiperazin-1-yl)phenyl)pyrimidine-2,4-diamine]: testing at 0.1 µM against ACK1 [1] gave an inhibition of 50.2%. On the same count and under the same terms, the figure for `COc1cc(N2CCN(C)CC2)ccc1Nc1ncc(Cl)c(N[C@@H](C)c2ccc(Cl)cc2)n1` [(S)-5-chloro-N^4-(1-(4-chlorophenyl)ethyl)-N^2-(2-methoxy-4-(4-methylpiperazin-1-yl)phenyl)pyrimidine-2,4-diamine] is 17.5%.

As to `c1ccc(-c2oc3ncnc(NC[C@@H]4CCCO4)c3c2-c2ccccc2)cc1` [Compound 1b], the “ACK1 dependent AKT Tyr176 phosphorylation” value with AKT Tyr176 is “inhibits”. In addition, the “AR Tyr267 phosphorylation” value in the data set with AR Tyr267 is reported as “inhibits”. Moreover, the “castration and radioresistant prostate xenograft tumor growth” value in data set [4] is given as “inhibits”. Take `CN(C)CCOc1ccc(-c2oc3ncnc(NCC4SCCS4)c3c2-c2ccccc2)cc1` [Compound 1c]: the pharmacokinetic properties entry in data set [5] was “poor pharmacokinetic properties”. Take `COc1cc(N2CCN(C)CC2)ccc1Nc1ncc(C)c(Nc2ccc(Cl)c(NS(=O)(=O)C(C)(C)C)c2)n1` [N-(2-chloro-5-((2-((2-methoxy-4-(4-methylpiperazin-1-yl)phenyl)amino)-5-methylpyrimidin-4-yl)amino)phenyl)-2-methylpropane-2-sulfonamide]: 0.1 µM produced 98.7% inhibition on ACK1 [1].

`COc1cc(N2CCN(C)CC2)ccc1Nc1ncc(C)c(Nc2cccc(NS(=O)(=O)C(C)(C)C)c2)n1` [N-(3-((2-((2-methoxy-4-(4-methylpiperazin-1-yl)phenyl)amino)-5-methylpyrimidin-4-yl)amino)phenyl)-2-methylpropane-2-sulfonamide] registered an inhibition at 0.1 µM on ACK1 [1] of 100%. `O=C(COc1cccc2c1C(=O)N(C1CCC(=O)NC1=O)C2=O)NCCCCN1CCN(c2ccc(Nc3ncc(Cl)c(NC[C@H]4CCCO4)n3)cc2)CC1` (stereo partly drawn) [N-(4-(4-(4-((5-chloro-4-((((R)-tetrahydrofuran-2-yl)methyl)amino)pyrimidin-2-yl)amino)phenyl)piperazin-1-yl)butyl)-2-((2-(2,6-dioxopiperidin-3-yl)-1,3-dioxoisoindolin-4-yl)oxy)acetamide] displayed a 50% inhibitory concentration (IC50) on ACK1 [3] of 56.4 nM. `COc1cc(N2CCN(C)CC2)ccc1Nc1ncc(C)c(NCC2CCOCC2)n1` [N^2-(2-methoxy-4-(4-methylpiperazin-1-yl)phenyl)-5-methyl-N^4-((tetrahydro-2H-pyran-4-yl)methyl)pyrimidine-2,4-diamine] yielded a concentration for half-maximal inhibition (IC50) against ACK1 [2] of 34.5 nM. Still for that read-out and setting: the figure for `COc1cc(N2CCN(C)CC2)c(F)cc1Nc1ncc(C)c(NCC2CCOCC2)n1` [N^2-(5-fluoro-2-methoxy-4-(4-methylpiperazin-1-yl)phenyl)-5-methyl-N^4-((tetrahydro-2H-pyran-4-yl)methyl)pyrimidine-2,4-diamine] is 14.7 nM; for `Cc1cnc(Nc2cc(F)c(C3CCN(C)CC3)c(F)c2)nc1Nc1ccc(Cl)c(OCC(C)C)c1` [N^4-(4-chloro-3-isobutoxyphenyl)-N^2-(3,5-difluoro-4-(1-methylpiperidin-4-yl)phenyl)-5-methylpyrimidine-2,4-diamine] it is 181 nM.
